Read-outs that look alike come from different tables or passages of the source.
Legend:
[1] = tested on: adjuvant-induced arthritis in rats; experiment: adjuvant-induced arthritis in rats (chronic anti-inflammatory activity); format: in vivo, male Sprague-Dawley strain rats; conditions: rat, p.o. once daily
Experimental: (3) A chronic anti-inflammatory activity was evaluated by the method of adjuvant-induced arthritis in rats [D. T. Walz et al., J. Pharmacol. and Exp. Ther., 178, 223 (1971)]. Eight male Sprague-Dawley strain rats weighing 190~230 g were used in each group. Into the left hind paw of rats was injected i.d. 0.5 mg of Mycobacterium butyricum suspended in 0.05 ml of paraffin oil. Test compounds suspended in 2.5% acacia were administered p.o. once daily for 21 days, starting on the day of the injection of an adjuvant (day 0). Paw volumes of adjuvant-injected and uninjected feet were measured on day 14 and on day 21. Percent inhibition was calculated by the following equation. [formula]

[2] = tested on: yeast-induced fever in rats; experiment: yeast-induced fever in rats (antipyretic activity); format: in vivo, male Wistar strain rats; conditions: po, rat, p.o., 100 mg/kg
Experimental: Five male Wistar strain rats weighing 150~180 g were used in each group. A 20% Baker's yeast suspension in 0.9% NaCl was injected s.c. into the dorsal region of rats in a volume of 1 ml/100 g body weight. […] The rectal temperature was determined with a thermometer, 1, 3 and 5 hours after the administration of test compounds. Percent inhibition was calculated by the following equation. [formula]

[3] = tested on: carrageenan-induced paw edema in rats; experiment: carrageenan-induced paw edema in rats (acute anti-inflammatory activity); format: in vivo, male Wistar strain rats; conditions: po, rat, p.o., 50 mg/kg
Experimental: (1) An acute anti-inflammatory activity was evaluated by the method of carrageenan-induced paw edema in rats [C. A. Winter et al., Proc. Soc. […] Six male Wistar strain rats weighing 150~180 g were used in each group. […] The volume of each paw edema was measured 3 and 5 hours after the injection of carrageenan. Percent edema inhibition was calculated by the following equation. [formula]

[4] = tested on: paper disk-induced granuloma in rats; experiment: paper disk-induced granuloma in rats (sub-chronic anti-inflammatory activity); format: in vivo, male Wistar strain rats; conditions: rat, p.o. once daily for 7 days
Experimental: Six male Wistar strain rats weighing 150~180 g were used in each group. Each paper disk (29±1 mg) was implanted s.c. into the bilateral area of the scapula of rats under anesthesia with amobarbital sodium. […] The rats were killed on day 7, at which time the paper disks with surrounding granulomatous tissues were removed and dried to constant weight overnight, and weighed. Percent inhibition was calculated by the following equation. [formula]

[5] = tested on: acetic acid-induced writhing in mice; experiment: acetic acid-induced writhing in mice (analgesic activity); format: in vivo, male ddY strain mice; conditions: po; mouse, p.o., 100 mg/kg, 1 hour before acetic acid i.p.; read-out: Inhibition (writhing)
Experimental: An analgesic activity was evaluated by the method of acetic acid-induced writhing in mice [R. Koster et al., Federation Proc., 18, 412 (1959)]. Ten male ddY strain mice weighing 20~25 g were used in each group. Test compounds suspended in 2.5% acacia were administered p.o. to the mice. One hour later, the mice were injected i.p. with 0.6% acetic acid in a volume of 0.1 ml/10 g body weight. The number of writhes in each of mice was counted for 20 minutes after the injection of the acetic acid. Percent inhibition was calculated by the following equation. [formula]

[6] = toxicity test in mice (LD50); conditions: in vivo, po; mouse, 14 days observation
Experimental: Female ICR strain mice weighing 20~25 g in groups of six each were used for toxicity tests. Test compounds suspended in 2.5% acacia were administered p.o. to the mice. The animals were observed daily for 14 days after the administration. The LD50 values were estimated from mortality (No. of dead mice/No. of mice used).

[7] = 1 hour after administration, read-out: Inhibition (fever), 1 hour
[8] = 3 hours after administration, read-out: Inhibition (fever), 3 hours
[9] = 5 hours after administration, read-out: Inhibition (fever), 5 hours
[10] = 3 hours after carrageenan, read-out: Percent edema inhibition, 3 hours
[11] = 5 hours after carrageenan, read-out: Percent edema inhibition, 5 hours

Row | SMILES | Inhibition, injected foot, Day 14 ([1]; 12.5 mg/kg/day) | Inhibition, injected foot, Day 21 ([1]; 12.5 mg/kg/day) | Inhibition, uninjected foot, Day 14 ([1]; 12.5 mg/kg/day) | Inhibition, uninjected foot, Day 21 ([1]; 12.5 mg/kg/day) | Inhibition, injected foot, Day 14 ([1]; 50 mg/kg/day) | Inhibition, injected foot, Day 21 ([1]; 50 mg/kg/day) | Inhibition, uninjected foot, Day 14 ([1]; 50 mg/kg/day) | Inhibition, uninjected foot, Day 21 ([1]; 50 mg/kg/day) | inhibition in vivo at 100 mg/kg [2, 7] | inhibition in vivo at 100 mg/kg [2, 8] | inhibition in vivo at 100 mg/kg [2, 9] | inhibition in vivo at 50 mg/kg [3, 10] | inhibition in vivo at 50 mg/kg [3, 11] | Inhibition (granuloma) ([4]; 25 mg/kg/day) | Inhibition (granuloma) ([4]; 100 mg/kg/day) | inhibition in vivo at 100 mg/kg [5] | LD50 at 336 h [6]
1 | CC(C)(C)c1cc(C=C(C#N)C(N)=O)cc(C(C)(C)C)c1O [Compound IX, β-Carbamoyl-β-cyano-3,5-di-tert-butyl-4-hydroxystyrene] | 33.3% | 46.1% | 70.3% | 42.6% | 31.6% | 29.6% | 40.5% | 42.6% | 35.4% | 77.3% | 87% | 40.8% | 34.2% | 27.0% | 25.0% | 50.7% | > 1000 mg/kg
2 | CC(=O)C=Cc1cc(C(C)(C)C)c(O)c(C(C)(C)C)c1 [Compound V, β-Acetyl-3,5-di-tert-butyl-4-hydroxystyrene] | 12.0% | 29.6% | 10.6% | 14.7% | 37.3% | 58.8% | 74.5% | 69.3% | 34.5% | 70.9% | 64.9% | 43.2% | 50% | 29.4% | 29.0% | 53.1% | > 1000 mg/kg

From patent US4440784A, “Anti-inflammatory, analgesic, and antipyretic pharmaceutical composition” (Kanegafuchi Chemical Industry Company, Ltd., priority 1981, dated 1984)
